Measured values published in the supplement of paper PMC10307832.

Compound: CC1=NC=CC(=C1)C2=CC=C(C=C2)CC(=O)NC3=CC=C(C=C3)C4=CN=CC=C4 [Wnt-C59]
Test: relative viability (nuclei count vs DMSO), 5 days (fraction); higher = more cells survive
Method in brief: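 Only plates meeting two conditions passed: control CV below 25% and at least one doubling. Lung cancer cell lines, kept overnight at 37 °C in 1536-well plates, were pinned with five library-drug doses (not always all listed) √10 apart on vehicle-anchored plates and grown 5 days without medium change. A one-step fix, permeabilisation and Hoechst stain preceded 4× imaging and MetaXpress nuclear counting. Viability equals treated-well nuclei divided by vehicle-well nuclei, as the median over plates.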

Cell Line	relative viability (0.001 µM)	relative viability (0.01 µM)	relative viability (0.03162 µM)	relative viability (0.1 µM)
NCI-H661	0.961	1.01	1.08	0.99
NCI-H727	1.01	0.854	0.867	0.931
NCI-H838	0.981	0.985	0.964	0.995
NCI-H1299	1.03	1.03	1.03	1.01
NCI-H1355	1.02	0.885	1.01	0.905
NCI-H1395	0.995	0.873	0.952	1.03
NCI-H1437	0.997	0.997	1	1.03
NCI-H1563	1.07	0.933	0.954	0.941
NCI-H1623	0.948	0.812	1.02	0.994
NCI-H1648	0.881	1.06	1.05	0.9
NCI-H1650	1.02	0.898	0.957	0.826
NCI-H1651	0.985	0.998	0.997	1
NCI-H1666	0.993	0.92	0.951	0.967
NCI-H1703	1.02	0.967	1.05	0.97
NCI-H1734	0.986	0.961	1.01	0.957
NCI-H1755	0.994	0.969	0.999	0.914
NCI-H1792	0.918	0.921	0.705	1.07
NCI-H1793	0.78	0.681	1.1	0.976
NCI-H1915	0.995	0.942	0.969	1
NCI-H1944	0.956	0.945	1.07	1.01

Cell Line	relative viability (0.001 µM)	relative viability (0.01 µM)	relative viability (0.03162 µM)	relative viability (0.1 µM)
NCI-H1975	0.901	0.896	0.968	0.988
NCI-H1993	0.86	0.751	1.04	0.909
NCI-H2009	0.997	0.999	1	0.992
NCI-H2023	0.948	1.03	1.15	0.801
NCI-H2085	1.02	0.98	1	0.953
NCI-H2087	1.07	0.922	0.971	1.01
NCI-H2126	1.02	0.976	1.03	1.04
NCI-H2170	0.997	0.879	0.939	0.975
NCI-H2228	1.01	0.819	0.891	0.868
NCI-H2342	1.01	1	0.989	1.03
NCI-H2347	1.05	1.01	1.03	0.997
NCI-H2405	1.01	0.932	0.945	0.977
NCI-H3122	0.989	0.991	1.02	0.962
PC-3 [JPC-3]	1.04	1.06	1.05	1.14
PC-14	1.09	1.1	1	1
RERF-LC-KJ	1	0.978	1.09	0.987
SK-LU-1	1	0.987	1.01	1.01
SK-MES-1	1.01	1.05	1.06	0.993
SW 900	0.681	0.755	0.793	0.823
SW 1573	1.02	0.967	1.1	0.91
